In the supplement of paper PMC4862054:
Where “and” joins values, the source holds several entries; their conditions need not be identical. Equal values may be shown once.

Key:
Conditions in all cases: incubation time: 72 h
[1] = system: Hs578T; experiment: normalised viability (% of control), CellTiter-Blue; higher = more viable cells (100 = DMSO, 0 = benzethonium chloride kill control)
Procedure: (§1)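 DSRT, CellTiter-Blue viability, 72 h incubation. Signal is normalised to DMSO and benzethonium chloride controls. Value is the normalised response at dose 1.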

[2] = system: DU-4475; experiment: as above
Procedure: as §1

[3] = system: CAL-85-1; experiment: as above
Procedure: as §1

[4] = system: SK-BR-3; experiment: as above
Procedure: as §1

[5] = system: MDA-MB-468; experiment: as above
Procedure: as §1

[6] = system: MDA-MB-231; experiment: as above
Procedure: as §1

[7] = system: MDA-MB-453; experiment: as above
Procedure: as §1

[8] = system: CAL-148; experiment: as above
Procedure: as §1

[9] = system: BT-549; experiment: as above
Procedure: as §1

[10] = system: CAL-51; experiment: as above
Procedure: as §1

[11] = system: HCC1143; experiment: as above
Procedure: as §1

[12] = system: HCC1937; experiment: as above
Procedure: as §1

[13] = system: MDA-MB-436; experiment: as above
Procedure: as §1

[14] = system: MFM-223; experiment: as above
Procedure: as §1

[15] = system: BT-474; experiment: as above
Procedure: as §1

[16] = system: HCC1599; experiment: as above
Procedure: as §1

[17] = system: CAL-120; experiment: as above
Procedure: as §1

[18] = system: Hs578T; experiment: normalised response (% of control), CellTiter-Glo; higher = more viable cells (100 = DMSO, 0 = benzethonium chloride kill control)
How it was run: (§2)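 The table gives the normalised signal for a single concentration in each entry. Breast cancer cell lines were seeded (20 µl suspension) into 384-well plates holding compound at 5 concentrations in 10-fold steps over a compound-specific 10,000-fold range and incubated 72 h, then read for CellTox Green fluorescence (485/520 nm) and CellTiter-Glo luminescence. Normalisation on each plate used 0.1 % DMSO (100) and a positive kill control (0).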

[19] = system: DU-4475; experiment: as above
How it was run: as §2

[20] = system: CAL-85-1; experiment: as above
How it was run: as §2

[21] = system: SK-BR-3; experiment: as above
How it was run: as §2

[22] = system: MDA-MB-468; experiment: as above
How it was run: as §2

[23] = system: MDA-MB-231; experiment: as above
How it was run: as §2

[24] = system: MDA-MB-453; experiment: as above
How it was run: as §2

[25] = system: CAL-148; experiment: as above
How it was run: as §2

[26] = system: BT-549; experiment: as above
How it was run: as §2

[27] = system: CAL-51; experiment: as above
How it was run: as §2

[28] = system: HDQ-P1; experiment: as above
How it was run: as §2

[29] = system: HCC1143; experiment: as above
How it was run: as §2

[30] = system: HCC1937; experiment: as above
How it was run: as §2

[31] = system: MDA-MB-436; experiment: as above
How it was run: as §2

[32] = system: MFM-223; experiment: as above
How it was run: as §2

[33] = system: BT-474; experiment: as above
How it was run: as §2

[34] = system: HCC1599; experiment: as above
How it was run: as §2

[35] = system: MCF-10A; experiment: as above
How it was run: as §2

[36] = system: CAL-120; experiment: as above
How it was run: as §2

[37] = system: DU-4475; experiment: normalised viability (% of control), CellTiter-Blue; higher = more viable cells (about 100 = DMSO control)
Procedure: (§3)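 DSRT, CellTiter-Blue viability, 72 h incubation. Signal is normalised to DMSO and benzethonium chloride controls. Value is the normalised response at dose 9.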

[38] = system: CAL-85-1; experiment: as above
Procedure: as §3

[39] = system: MDA-MB-453; experiment: as above
Procedure: as §3

[40] = system: CAL-148; experiment: as above
Procedure: as §3

[41] = system: CAL-51; experiment: as above
Procedure: as §3

[42] = system: HDQ-P1; experiment: as above
Procedure: as §3

## CS(=O)(=O)CCNCc1ccc(-c2ccc3ncnc(Nc4ccc(OCc5cccc(F)c5)c(Cl)c4)c3c2)o1 [Lapatinib] (1 nM)
[1]
  normalised viability: 100% and 124%
[2]
  normalised viability: 96.4% and 93.1%
[3]
  normalised viability: 90.3% and 86.8%
[4]
  normalised viability: 92.7% and 105%
[5]
  normalised viability: 108% and 114%
[6]
  normalised viability: 86.6% and 96.8%
[7]
  normalised viability: 99.8% and 92.5%
[8]
  normalised viability: 97.7% and 107%
[9]
  normalised viability: 88.8% and 94.3%
[10]
  normalised viability: 116% and 104%
[11]
  normalised viability: 87% and 88%
[12]
  normalised viability: 99.3% and 105%
[13]
  normalised viability: 104% and 115%
[14]
  normalised viability: 96.7% and 95.1%
[15]
  normalised viability: 85.4% and 94.8%
[16]
  normalised viability: 114% and 97.8%
[17]
  normalised viability: 83.3% and 87.2%
[18]
  normalised response: 104%
[19]
  normalised response: 107%
[20]
  normalised response: 93.4%
[21]
  normalised response: 116%
[22]
  normalised response: 106%
[23]
  normalised response: 99.5%
[24]
  normalised response: 108%
[25]
  normalised response: 110%
[26]
  normalised response: 95.4%
[27]
  normalised response: 77.7%
[28]
  normalised response: 95.7%
[29]
  normalised response: 105%
[30]
  normalised response: 100%
[31]
  normalised response: 99.3%
[32]
  normalised response: 107%
[33]
  normalised response: 105%
[34]
  normalised response: 90.2%
[35]
  normalised response: 99.3%
[36]
  normalised response: 100%

## COC(=O)C[C@](O)(CCCC(C)(C)O)C(=O)O[C@@H]1C(OC)=C[C@]23CCCN2CCc2cc4c(cc2[C@H]13)OCO4 [Omacetaxine mepesuccinate] (10000 nM)
[37]
  normalised viability: 1.55%
[38]
  normalised viability: 2.22%
[39]
  normalised viability: 2.46%
[40]
  normalised viability: 5.68%
[41]
  normalised viability: 3.97%
[42]
  normalised viability: 15.2%

## COc1cc(Nc2ncc(F)c(Nc3ccc4c(n3)NC(=O)C(C)(C)O4)n2)cc(OC)c1OC [R406] (10000 nM)
[37]
  normalised viability: 102%
[38]
  normalised viability: 94.6%
[39]
  normalised viability: 110%
[40]
  normalised viability: 99.8%
[41]
  normalised viability: 97.8%
[42]
  normalised viability: 108%

## c1ccc(C2CN3CCSC3=N2)cc1 (centres undefined) [Tetramisole] (10000 nM)
[37]
  normalised viability: 101%
[38]
  normalised viability: 98.1%
[39]
  normalised viability: 99.5%
[40]
  normalised viability: 117%
[41]
  normalised viability: 89.3%
[42]
  normalised viability: 116%
